For orientation: Km means the concentration of substrate that gives half-maximal velocity.

Data on five molecules can be found in patent US5187086A, “Molecules with antibody combining sites that catalyze hydrolysis reactions through use of a charged hapten” (Scripps Clinic and Research Foundation, priority 1991, dated 1993).

Each structure is given as a SMILES string.

What all share (format): biochemical, mouse (129G1X)
Test [1] concerns monoclonal receptor (antibody) 27A6 (hybridoma 27A6, ATCC HB 10621), IgG induced by hapten Compound 5a. Briefly: Hydrolysis of benzoate ester Compound 3 catalyzed by monoclonal receptor 27A6 (HPLC assay, Michaelis-Menten kinetics). The method, then:
That monoclonal receptor is also referred to as receptor or antibody 27A6.
Purified monoclonal antibodies were dialyzed against EPPS buffer (I mM, pH 8.0, 100 mM NaCl) or CHES buffer (1 mM, pH 8.0, 100 mM NaCl). Its protein concentration was determined by the BCA method (Pierce). Assays were performed by HPLC (reverse-phase column, C18, VYDAC 201Tp54) with C3 CN/H2 O (0.1 percent TFA) on an isocratic program of 10/90. An internal standard of o-acetamidophenol was used to calculate the amount of product formed [4-(carboxybutyramido)phenol].
Reactions contained 5 percent cosolvent dioxane, and the temperature was maintained at 37°±0.1°degrees C. Initial linear rates were measured at<5 percent hydrolysis of the total substrate. […] Kinetic parameters Vmax Km were determined by nonlinear least-squares fitting of the initial rate vs. substrate concentration to a hyperbolic curve described by the Michaelis-Menten equation.

The test system of test [2] is monoclonal antibody 30C6 (hybridoma 30C6, ATCC HB 10341), IgG induced by haptenic ligand Compound 1a. Kind of test: Hydrolysis of benzoate ester Compound 3 catalyzed by monoclonal antibody 30C6 (HPLC assay, Michaelis-Menten kinetics). Here is the method: Monoclonal antibodies at a concentration of 20 μM were initially screened (phosphate buffer 50 mM, pH 7.5, 100 mM NaCl, 37° degrees C.) against benzoate ester reactant ligand Compound 3, ([…]) for the production of 5-[[4-(hydroxy)phenyl]aming]-5-oxo-pentanoic acid, Compound 4. [Analysis was performed via HPLC on an RP-C18 column eluting with water: acetonitrile (op:10) at a flow of 1 ml/min with UV detector set to 254 nm. The hydrolysis product, Compound 4 (FIG. 1; retention time 7 minutes) was collected (recovered) an found to be identical by RP-HPLC coinjection and mass spectral analysis with an authentic sample.]
The pH dependence of the hydrolysis of substrate Compound 3 was examined in the presence of monoclonal antibodies 30C6 (20 μM) between pH 6.0 and 7.2 (Bis-tris) and 7.2-8.0 (phosphate), both at 50 mM buffer and 100 mM NaCl, 37° degrees C. (FIG. 2).

Test [3] concerns the three catalytic monoclonal antibodies obtained to hapten Compound 5a. Briefly: HPLC screen of hydrolysis of Compound 3 by catalytic antibodies, inhibition by free hapten. Conditions: 50 μM inhibitor; antibody 20 μM, Compound 3 500 μM, phosphate 50 mM, pH 7.5, 100 mM NaCl, 37 degrees C. The method, then:
Antibodies at a concentration of 20μM were initially screened (phosphate buffer, 50 mM, pH 7.5, 100 mM NaCl, 37° degrees C.) via an HPLC assay against benzoate ester Compound 3, (500 μM) for the production of 5-[(4-hydroxyphenyl)aming]-5-oxopentanoic acid, Compound 4.

Test [4] relates to monoclonal receptor (antibody) 27A6 (hybridoma 27A6, ATCC HB 10621), IgG induced by hapten Compound 5a. Briefly: Chemical modification of antibody 27A6, then assay of catalytic (esterolytic) activity by HPLC. The method, then:
The esterolytic activity of monoclonal receptor 27A6 was unaffected by treatment with diethyl pyrocarbonate or maleic anhydride in fifty-fold molar excess to protein.
(a) Phenylglyoxal; a 50 μl aliquot of a phenylglyoxal solution (6 mM), (125 mM NaHCO3, pH 7.5) was added to buffer 195 μl (125 mM, pH 7.5 NaHCO3), containing antibody (20 μM). The mixture was vortexed and left to stand for one hour at room temperature. This reaction mixture was then transferred to a microdialyzer (Pierce) and dialyzed with 125 mM, pH 7.5 NaHCO3 with a flow through of approximately 150 ml/hour for two hours. The microdialyzer was then flushed with 4×60 ml portions of pH 8.4, 50 mM CHES, 100 mM NaCl and left to stand in this buffer overnight (about 15-18 hours). The microdialyzer was again flushed 3×50 ml portions of pH 8.4, 50 mM CHES, 100 mM NaCl the next morning. Samples were removed, protein concentrations recalculated (BCA) and assays run for catalytic activity (HPLC) or binding (ELISA). A similar procedure was used with hapten present (200 μM).
(b) Maleic anhydride; a […] aliquot of a maleic anhydride solution (0.06 M, dioxane) was added to 299 μl of 20 mM, pH 8.9 borate, 100 mM NaCl containing 20 μM of antibody. The solution was vortexed and left to stand at room temperature for one hour. This reaction mixture was then transferred to a microdialyzer and dialyzed as described above with 50 mM CHES, pH 8.4, 100 mM NaCl. Samples were removed, protein concentrations calculated (BCA), and assays run for catalytic activity or binding.
(c) Diethyl pyrocarbonate; 10 μl of a 0.6 M diethylpyrocarbonate solution in ethanol was diluted into 1 ml of sodium acetate (NaOAc) (150 mM, pH 6, 100 mM NaCl). Five microliters of that solution were added to 299 μl of NaOAc (150 mM, pH 6.0, 100 mM NaCl) containing 20 µM of antibody. The mixture was vortexed and left to stand at 4° degrees C. overnight (about 15-18 hours). This reaction mixture was then transferred to a microdialyzer and dialyzed as described above with CHES (50 mM, pH 8.4, 100 mM NaCl). Samples were removed, protein concentrations determined (BCA) and assays performed for catalytic activity and binding.

The mark [5] stands for this setting: hydrolysis of Compound 3, 50 mM phosphate, 100 mM NaCl, pH 7.2, 37 degrees C, antibody 20 μM.
The mark [6] stands for this setting: treatment with reagent in fifty-fold molar excess to protein.

As for `O=C(O)CCCC(=O)Nc1ccc(OC(=O)c2ccccc2)cc1` [Compound 3], in test [1] (hydrolysis of Compound 3, 50 mM EPPS, 100 mM NaCl, pH 8.5, 37 degrees C), the “Kcat^app” value stood at 0.00017 ± 3.3e-05 s⁻¹. In addition, in test [2] (setting [5]), the “Kcat^app” value is 5±0.2×10^-3 min^-1 and the Michaelis-Menten constant (Km) was 1120 ± 50 µM. The “ratio of kcat/ko (rate acceleration by the antibody over hydrolysis in water)” value in test [2] (pH independent antibody-catalyzed rate vs hydrolysis of Compound 3 in water) was “over a million fold”.
Take `Nc1ccc(CC(O)c2ccccc2C(=O)O)cc1` (stereo not shown) [Compound 5b]: in test [1] (competitive inhibitor, substrate Compound 3, read-out: K (competitive inhibition of the antibody-catalyzed hydrolysis of Compound 3)), the Ki was determined as 6 ± 2 µM. The inhibition of catalysis entry in test [3] was “completely inhibited”.
As for `CCOC(=O)OC(=O)OCC` [diethyl pyrocarbonate], the “esterolytic activity after treatment” value in test [4] (setting [6]) was “unaffected”.
Turning to `O=C1C=CC(=O)O1` [maleic anhydride], the “esterolytic activity after treatment” value in test [4] (setting [6]) is reported as “unaffected”.
On to `O=CC(=O)c1ccccc1` [phenylglyoxal], for which, in test [4] (reagent in fifty-fold molar excess, Compound 5b five-fold molar excess to protein), the “loss of catalytic activity in the presence of inhibitor Compound 5b” value is recorded as 35%. Moreover, in test [4] (setting [6]), the “loss of catalytic activity” value came to 75%.
